Assay results reported in patent US7659404B2, “Broad spectrum 2-(substituted-amino)-benzothiazole sulfonamide HIV protease inhibitors” (Tibotec Pharmaceuticals Ltd., priority 2001, dated 2010).

Legend:
[1] = system: clinically isolated HIV strain H; assay type: cell-based; settings: FR=EC50(mutant strain)/EC50(HIV-1 strain LAI)
Protocol: (§1) HIV- or mock-infected MT4 cells were incubated for five days in the presence of various concentrations of the inhibitor. […] Cell viability is measured by measuring the concentration of MTT, a yellow, water soluble tetrazolium dye that is converted to a purple, water insoluble formazan in the mitochondria of living cells only. Upon solubilization of the resulting formazan crystals with isopropanol, the absorbance of the solution is monitored at 540 nm. The values correlate directly to the number of living cells remaining in the culture at the completion of the five day incubation. The inhibitory activity of the compound was monitored on the virus-infected cells and was expressed as EC50 and EC90. These values represent the amount of the compound required to protect 50% and 90%, respectively, of the cells from the cytopathogenic effect of the virus. The toxicity of the compound was measured on the mock-infected cells and was expressed as CC50, which represents the concentration of compound required to inhibit the growth of the cells by 50%. The selectivity index (SI) (ratio CC50/EC50) is an indication of the selectivity of the anti-HIV activity of the inhibitor.
(§2) Because of the increasing emergence of drug resistant HIV strains, the present compounds were tested for their potency against clinically isolated HIV strains harboring several mutations.
(§3) As a measure of the broad spectrum activity of the present compounds, the fold resistance (FR) defined as FR=EC50(mutant strain)/EC50(HIV-1 strain LAI).

[2] = system: clinically isolated HIV strain J; assay type: cell-based; settings: FR=EC50(mutant strain)/EC50(HIV-1 strain LAI)
Protocol: as §1, §2, §3

[3] = system: clinically isolated HIV strain T; assay type: cell-based; settings: FR=EC50(mutant strain)/EC50(HIV-1 strain LAI)
Protocol: as §1, §2, §3

[4] = system: clinically isolated HIV strain O; assay type: cell-based; settings: FR=EC50(mutant strain)/EC50(HIV-1 strain LAI)
Protocol: as §1, §2, §3

[5] = system: clinically isolated HIV strain I; assay type: cell-based; settings: FR=EC50(mutant strain)/EC50(HIV-1 strain LAI)
Protocol: as §1, §2, §3

virus strain F (R13025) = assay: microbe, parasite or virus in culture; assay type: cell-based, HIV; settings: FR=EC50(mutant strain)/EC50(HIV-1 strain LAI); strain F
Method in brief: (§4)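 First, MT4 cells were infected with HIV (or mock-infected) and incubated five days with varying inhibitor concentrations. Next, living cells were quantified via MTT reduction, measuring absorbance at 540 nm. Finally, EC50 was derived and fold resistance calculated relative to HIV-1 strain LAI.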

virus strain S (R13080) = assay: microbe, parasite or virus in culture; assay type: cell-based, HIV; settings: FR=EC50(mutant strain)/EC50(HIV-1 strain LAI); strain S
Method in brief: as §4

SMILES	fold resistance (FR), strain H [1]	fold resistance (FR), strain J [2]	fold resistance (FR), strain T [3]	fold resistance (FR), strain O [4]	fold resistance (FR), strain I [5]	fold resistance (FR), strain F (virus strain F (R13025))	fold resistance (FR), strain S (virus strain S (R13080))
CC(C)CN(C[C@@H](O)[C@H](Cc1ccccc1)NC(=O)O[C@H]1CO[C@H]2OCC[C@H]21)S(=O)(=O)c1ccc2nc(NCCCN(C)C)sc2c1 [Compound 22]	0.4	0.4	6.0	0.4	0.6	0.3	1.4
CNCCNc1nc2ccc(S(=O)(=O)N(CC(C)C)C[C@@H](O)[C@H](Cc3ccccc3)NC(=O)O[C@H]3CO[C@H]4OCC[C@H]43)cc2s1 [Compound 23]	1.2	1.0	1.2	0.9	1.0	1.1	1.1
CC(C)CN(C[C@@H](O)[C@H](Cc1ccccc1)NC(=O)O[C@H]1CO[C@H]2OCC[C@H]21)S(=O)(=O)c1ccc2nc(N3CCN(C)C(=O)C3)sc2c1 [Compound 24]	4.7	4.5	174.9	1.6	1.1	16.6	24.1
CC(C)CN(C[C@@H](O)[C@H](Cc1ccccc1)NC(=O)O[C@H]1CO[C@H]2OCC[C@H]21)S(=O)(=O)c1ccc2nc(N3CCN(C)C3=O)sc2c1 [Compound 25]	4.7	6.0	619.8	5.6	3.5	26.0	42.5
CC(C)CN(C[C@@H](O)[C@H](Cc1ccccc1)NC(=O)O[C@H]1CO[C@H]2OCC[C@H]21)S(=O)(=O)c1ccc2nc(N3CCN(C)CC3=O)sc2c1 [Compound 26]	20.3	9.2	345.6	10.6	6.6	29.6	34.1
CCOC(=O)N(CCN(C)C)c1nc2ccc(S(=O)(=O)N(CC(C)C)C[C@@H](O)[C@H](Cc3ccccc3)NC(=O)O[C@H]3CO[C@H]4OCC[C@H]43)cc2s1 [Compound 28]	1.8	0.7	12.7	0.8	1.4	2.3	4.4
CC(C)CN(CC(O)C(Cc1ccccc1)NC(=O)OC1CNC(=O)C1)S(=O)(=O)c1ccc2nc(NC(=O)CN(C)C)sc2c1 (centres unmarked) [Compound 36]	0.6	0.2	0.2	0.2	0.5	0.2	0.2
CC(C)CN(C[C@@H](O)[C@H](Cc1ccccc1)NC(=O)OCc1cccnc1)S(=O)(=O)c1ccc2nc(NCCN(C)C)sc2c1 [Compound 38]	2.0	3.9	230.4	1.2	1.1	12.4	11.9
Cc1c(N)cccc1C(=O)N[C@@H](Cc1ccccc1)[C@H](O)CN(CC(C)C)S(=O)(=O)c1ccc2nc(NCCN(C)C)sc2c1 [Compound 39]	2.3	2.2	249.9	1.7	2.4	19.7	16.5
Cc1cccc(C)c1OCC(=O)N[C@@H](Cc1ccccc1)[C@H](O)CN(CC(C)C)S(=O)(=O)c1ccc2nc(NCCN(C)C)sc2c1 [Compound 40]	2.1	2.7	87.8	3.2	6.4	7.2	12.8
CC(C)CN(C[C@@H](O)[C@H](Cc1ccccc1)NC(=O)OCc1cccnc1)S(=O)(=O)c1ccc2nc(NCCN3CCCC3)sc2c1 [Compound 41]	2.3	5.6	252.5	2.0	2.5	44.4	37.6
Cc1c(N)cccc1C(=O)N[C@@H](Cc1ccccc1)[C@H](O)CN(CC(C)C)S(=O)(=O)c1ccc2nc(NCCN3CCCC3)sc2c1 [Compound 45]	1.2	1.1	103.0	1.3	4.0	17.3	19.9
Cc1cccc(C)c1OCC(=O)N[C@@H](Cc1ccccc1)[C@H](O)CN(CC(C)C)S(=O)(=O)c1ccc2nc(NCCN3CCCC3)sc2c1 [Compound 46]	1.3	2.8	44.4	3.2	3.3	4.7	7.1
CC(C)CN(C[C@@H](O)[C@H](Cc1ccccc1)NC(=O)OCc1cncs1)S(=O)(=O)c1ccc2nc(NCCN(C)C)sc2c1 [Compound 48]	2.5	6.5	175.0	4.3	2.5	9.4	13.8
CC(C)CN(C[C@@H](O)[C@H](Cc1ccccc1)NC(=O)OCc1cncs1)S(=O)(=O)c1ccc2nc(NCCN3CCCC3)sc2c1 [Compound 49]	3.6	5.5	114.0	3.9	2.9	12.8	17.8
CC(C)CN(C[C@@H](O)[C@H](Cc1ccccc1)NC(=O)OCc1cncs1)S(=O)(=O)c1ccc2nc(NCCN3CCCC3)sc2c1.O=C(O)C(F)(F)F [Compound 50]	1.4	7.0	165.5	3.5	1.7	8.6	27.9
CC(C)CN(C[C@@H](O)[C@H](Cc1ccccc1)NC(=O)OCc1cncs1)S(=O)(=O)c1ccc2nc(NCCCN(C)C)sc2c1 [Compound 51]	1.8	0.9	51.8	0.6	2.6	2.9	2.1
CC(C)CN(C[C@@H](O)[C@H](Cc1ccccc1)NC(=O)OCc1cccnc1)S(=O)(=O)c1ccc2nc(NCCCN(C)C)sc2c1 [Compound 52]	1.8	2.7	124.5	1.6	1.3	10.2	20.3
Cc1cccc(C)c1OCC(=O)N[C@@H](Cc1ccccc1)[C@H](O)CN(CC(C)C)S(=O)(=O)c1ccc2nc(NCCCN(C)C)sc2c1 [Compound 53]	0.6	1.4	49.8	1.6	1.3	2.1	3.8
Cc1c(N)cccc1C(=O)N[C@@H](Cc1ccccc1)[C@H](O)CN(CC(C)C)S(=O)(=O)c1ccc2nc(NCCCN(C)C)sc2c1 [Compound 54]	0.6	0.4	1.4	0.4	0.9	3.6	1.8
